Measurements reported in patent EP0207193A2, “Synergetic combination of flupirtin and 4-acetamido-phenol” (Degussa Aktiengesellschaft, priority 1985, dated 1987).
Where two headings read alike, the source gives them in different places.

System: Albino-Ratte
Test: Randall-Selitto test (analgesic effect, determination of synergism)
Assay type: in vivo
Conditions: per os; for Steigerung der analgetischen Wirksamkeit um den Faktor: ED50 alone versus ED50 in the combination, rat; for ED50: Rattus norvegicus, po
Excerpt: Die erfindungsgemäße Komtination zeigt beispielsweise im Randall-Selitto-Test einen Synergismus der analgetischen Wirkung, die gegenüber der Analgesie des reinen Flupirtin (Das Fiupirt^in wird stets als Maleat, Gluconat oder Hydrochlorid untersucht.) und dem reinen 4-Acetamido-phenol überadditiv gesteigert ist.
Die Wirkung der erfindungsgemäßen Kombination geht beispielsweise aus folgenden Versuchen hervor: Diese Untersuchungen erfolgten im Randall-Selitto-Test an der Albino-Ratte. Hierbei wird sowohl die Flupirtin-Dosis (Hydrochlorid) konstant gehalten, als auch bei konstanter Dosis des 4-Acetamido-phenols die Flupirtin-. Dosis geändert und jeweils im ersten Fall die ED50 der analgetischen Wirkung des 4-Acetamido-phenols und im zweiten Fall die analgetische Hauptwirkung des Flupirtins in der Kombination bestimmt (Methode der Bestimmung des Synergismus nach Forth, Henschler und Rummel, Lehrbuch Pharmakologie und Toxikologie, Ausgabe 1980, Seite 65; Wissenschaftsverlag, Bibliographisches Institut Mannheim, Wien und Zürich).
So wird beispielsweise in dem vorstehend angegebenen Test die analgetisch wirksame ED50 des Flupirtins von 30,94 mg/kg per os auf 1,65 mg/kg und die analgetisch wirksame ED50 des 4-Acetamido-phenols (Paracetamol) von 71,47 mg/kg auf 0,6 mg/kg per os gesenkt. In diesem Test erfolgt also eine Steigerung der analgetischen Wirksamkeit des Flupirtins um den Faktor 18 und hinsichtlich der analgetischen Wirkung des Paracetamols um den Faktor 119.

Structure (SMILES) | Steigerung der analgetischen Wirksamkeit um den Faktor | ED50 (Flupirtin (hydrochloride) in combination with a constant dose of 4-Acetamido-phenol, read-out: analgetisch wirksame ED50 des Flupirtins) | ED50 (Flupirtin alone (hydrochloride), read-out: analgetisch wirksame ED50 des Flupirtins) | ED50 (4-Acetamido-phenol alone, read-out: analgetisch wirksame ED50 des 4-Acetamido-phenols (Paracetamol)) | ED50 (4-Acetamido-phenol in combination with a constant dose of Flupirtin (hydrochloride), read-out: analgetisch wirksame ED50 des 4-Acetamido-phenols (Paracetamol))
CCOC(=O)Nc1ccc(NCc2ccc(F)cc2)nc1N [Flupirtin, 2-Amino-3-carbethoxyamino-6-(4-fluor-be-nzylamino)-pyridin] | 18 | 1.65 mg/kg | 30.9 mg/kg | – | –
CC(=O)Nc1ccc(O)cc1 [4-Acetamido-phenol] | 119 | – | – | 71.5 mg/kg | 0.6 mg/kg
